Drawing on paper PMC11840923, “Kinetic and Thermodynamic Characterization of Human 4-Oxo-L-proline Reductase Catalysis” (Biochemistry, 2025), this text covers Kd for two compounds.

One may read the pKd as −log10 of the Kd, conventionally taken in molar units. Read a high pKd as a low Kd.

In test [1] the target is T1, 4-oxo-L-proline reductase (HsBDH2) (Homo sapiens, UniProt Q9BUT1).
T1 construct: gene BDH2
The experiment in a line: ITC at […] °C, pH […] ([…] stoichiometry); also DSF and stopped-flow koff. Format: binding.

The target in test [2] is T1, 4-oxo-L-proline reductase (HsBDH2). In words: ITC at […] °C, pH […] (number of sites fixed at one); also DSF. Format: binding.

pKd: −log10 of the molar value.

T1 sequence (Q9BUT1 whole entry): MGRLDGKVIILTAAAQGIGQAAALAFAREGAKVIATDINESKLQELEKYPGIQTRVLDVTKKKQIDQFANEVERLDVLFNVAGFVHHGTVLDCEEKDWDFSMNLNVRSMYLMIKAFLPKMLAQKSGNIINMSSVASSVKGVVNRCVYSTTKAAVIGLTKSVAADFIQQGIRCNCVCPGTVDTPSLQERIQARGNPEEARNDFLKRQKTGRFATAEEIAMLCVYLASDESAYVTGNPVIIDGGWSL

In test [1], `NC(=O)C1=CN([C@@H]2O[C@H](COP(=O)(O)OP(=O)(O)OC[C@H]3O[C@@H](n4cnc5c(N)ncnc54)[C@H](O)[C@@H]3O)[C@@H](O)[C@H]2O)C=CC1` [NADH] showed a negative logarithm of the Kd (pKd) of 6.32.
In test [2], `NC(=O)c1ccc[n+]([C@@H]2O[C@H](COP(=O)([O-])OP(=O)(O)OC[C@H]3O[C@@H](n4cnc5c(N)ncnc54)[C@H](O)[C@@H]3O)[C@@H](O)[C@H]2O)c1` [NAD^+] showed a pKd of 4.54.
